Results as given in patent publication US11000033B2, “Ketone or oxime compound, and herbicide” (NISSAN CHEMICAL CORPORATION, priority 2014, dated 2021).

How the values were obtained:
Format in all cases: in vivo
[1] = test system: Scirpus juncoides; test: Test Example 1: herbicidal activity, application before weed generation in submerged conditions (symbol B); details: application herbicide amount 320 g/ha
Summary of the method: (§1)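 Steps: alluvial soil flooded to 4 cm; weed seeds sown together; rice seedlings (2.5 leaf) transplanted; diluted emulsion applied to water surface the same day as sowing; plants grown at 25–30 °C in greenhouse; herbicidal effect rated on a 0–5 scale at 3 weeks.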

[2] = test system: Stellaria media; test: Test Example 5: herbicidal effect by foliage application, plastic box (symbol P); details: 320 g/ha, 3 weeks after application
Summary of the method: (§2)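 Herbicide, formulated as an emulsion and diluted in water, is sprayed onto the aerial parts of 14-day seedlings. These were grown at 25° C. to 30° C. in sterilized diluvial soil; effects are graded after 3 weeks.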

[3] = test system: Digitaria ciliaris; test: Test Example 4: herbicidal effect by soil treatment (symbol F); details: application herbicide amount 320 g/ha
Summary of the method: (§3)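 Seeds were sown in sterilized diluvial soil, covered with about 1.5 cm of soil, and the soil surface was sprayed with a water-diluted emulsion of the compound at a predetermined rate. Plants grew in a greenhouse at 25° C. to 30° C.; effects were scored visually 3 weeks after application.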

[4] = test system: Echinochloa crus-galli var. crus-galli; test: Test Example 4: herbicidal effect by soil treatment (symbol H); details: application herbicide amount 320 g/ha
Summary of the method: as §3

[5] = test system: Setaria viridis; test: Test Example 5: herbicidal effect by foliage application, plastic box (symbol G); details: 320 g/ha, 3 weeks after application
Summary of the method: as §2

[6] = test system: Digitaria ciliaris; test: Test Example 5: herbicidal effect by foliage application, plastic box (symbol F); details: 320 g/ha, 3 weeks after application
Summary of the method: as §2

[7] = test system: Echinochloa oryzacola Vasing.; test: Test Example 1: herbicidal activity, application before weed generation in submerged conditions (symbol A); details: application herbicide amount 320 g/ha
Summary of the method: as §1

[8] = test system: Monochoria vaginalis; test: Test Example 2: herbicidal activity, application during weed generation in submerged conditions (symbol C); details: Table 23; application herbicide amount 320 g/ha; grade 0-5 by criteria of Test Example 1
Summary of the method: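 Paddy pot test, submerged (4 cm water), alluvial soil, mixed sowing; greenhouse 25–30° C. Emulsion formulation diluted to predetermined rate, applied onto floodwater at 1–2 leaf stage. Visual herbicidal rating at 3 wk post-treatment.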

[9] = test system: Leptochloa chinensis; test: Test Example 3: herbicidal effect by foliage application, Wagner pot (symbol D); details: application herbicide amount 320 g/ha
Summary of the method: (§4)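 Foliar spray of water-diluted emulsion formulation at a predetermined herbicide amount onto 14-day-old plants in flooded alluvial soil (water depth 0.1–0.5 cm), greenhouse 25–30 °C; rice sown alongside. Scored 3 wk post-application on set criteria.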

[10] = test system: Cyperus difformis; test: Test Example 3: herbicidal effect by foliage application, Wagner pot (symbol E); details: application herbicide amount 320 g/ha
Summary of the method: as §4

[11] = test system: Avena fatua; test: Test Example 5: herbicidal effect by foliage application, plastic box (symbol I); details: 320 g/ha, 3 weeks after application
Summary of the method: as §2

[12] = test system: beet; test: Test Example 4: effect on crop by soil treatment (symbol f); details: application herbicide amount 320 g/ha
Summary of the method: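 Plants grew in a 25° C. to 30° C. greenhouse after spot-sowing of seeds, including beet, rapeseed, wheat and rice, into sterilized diluvial soil under roughly 1.5 cm of cover soil.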

[13] = test system: Veronica persica; test: Test Example 4: herbicidal effect by soil treatment (symbol R); details: application herbicide amount 320 g/ha
Summary of the method: as §3

[14] = test system: Setaria viridis; test: Test Example 4: herbicidal effect by soil treatment (symbol G); details: application herbicide amount 320 g/ha
Summary of the method: as §3

Structure (SMILES)	Herbicidal effect grade, B: Scirpus juncoides [1]	P: Stellaria media, herbicidal effect (criteria of Test Example 1) [2]	F: Digitaria ciliaris, herbicidal effect grade [3]	H: Echinochloa crus-galli var. crus-galli, herbicidal effect grade [4]	G: Setaria viridis, herbicidal effect (criteria of Test Example 1) [5]	F: Digitaria ciliaris, herbicidal effect (criteria of Test Example 1) [6]	Herbicidal effect grade, A: Echinochloa oryzacola Vasing. [7]	Herbicidal effect grade, C: Monochoria vaginalis [8]	herbicidal effect on D (Leptochloa chinensis), grade 0-5 [9]	herbicidal effect on E, grade 0-5 [10]	I: Avena fatua, herbicidal effect (criteria of Test Example 1) [11]	f: beet, effect on crop grade [12]	R: Veronica persica, herbicidal effect grade [13]	G: Setaria viridis, herbicidal effect grade [14]
CON=C(C)CC1CC(OS(=O)(=O)N(C)C)=C(c2c(C)cc(-c3ccc(F)cc3)cc2C)C1=O (mixture of isomers) [6-060]	5 (Herbicidal ratio of 90% or more (almost completely withered))	4 (Herbicidal ratio of 70% or higher and lower than 90%)	5 (Herbicidal ratio of 90% or more (almost completely withered))	4 (Herbicidal ratio of 70% or higher and lower than 90%)	4 (Herbicidal ratio of 70% or higher and lower than 90%)	5 (Herbicidal ratio of 90% or more (almost completely withered))	5 (Herbicidal ratio of 90% or more (almost completely withered))	4 (Herbicidal ratio of 70% or higher and lower than 90%)	5 (Herbicidal ratio of 90% or more (almost completely withered))	5 (Herbicidal ratio of 90% or more (almost completely withered))	5 (Herbicidal ratio of 90% or more (almost completely withered))	0 (Herbicidal ratio of 5% or lower (almost no effect))	2 (Herbicidal ratio of 20% or higher and lower than 40%)	5 (Herbicidal ratio of 90% or more (almost completely withered))
CON=C(C)CC1CC(OC(=O)COc2ccccc2)=C(c2c(C)cc(-c3ccc(Cl)cc3)cc2C)C1=O (mixture of isomers) [6-061]	1 (Herbicidal ratio of 5% or higher and lower than 20%)	3 (Herbicidal ratio of 40% or higher and lower than 70%)	5 (Herbicidal ratio of 90% or more (almost completely withered))	5 (Herbicidal ratio of 90% or more (almost completely withered))	5 (Herbicidal ratio of 90% or more (almost completely withered))	5 (Herbicidal ratio of 90% or more (almost completely withered))	5 (Herbicidal ratio of 90% or more (almost completely withered))	2 (Herbicidal ratio of 20% or higher and lower than 40%)	5 (Herbicidal ratio of 90% or more (almost completely withered))	5 (Herbicidal ratio of 90% or more (almost completely withered))	5 (Herbicidal ratio of 90% or more (almost completely withered))	0 (Herbicidal ratio of 5% or lower (almost no effect))	4 (Herbicidal ratio of 70% or higher and lower than 90%)	5 (Herbicidal ratio of 90% or more (almost completely withered))
CON=C(C)CC1CC(OC(=O)N2CCOCC2)=C(c2c(C)cc(-c3ccc(Cl)cc3)cc2C)C1=O (mixture of isomers) [6-062]	4 (Herbicidal ratio of 70% or higher and lower than 90%)	3 (Herbicidal ratio of 40% or higher and lower than 70%)	3 (Herbicidal ratio of 40% or higher and lower than 70%)	5 (Herbicidal ratio of 90% or more (almost completely withered))	5 (Herbicidal ratio of 90% or more (almost completely withered))	5 (Herbicidal ratio of 90% or more (almost completely withered))	5 (Herbicidal ratio of 90% or more (almost completely withered))	3 (Herbicidal ratio of 40% or higher and lower than 70%)	5 (Herbicidal ratio of 90% or more (almost completely withered))	5 (Herbicidal ratio of 90% or more (almost completely withered))	5 (Herbicidal ratio of 90% or more (almost completely withered))	0 (Herbicidal ratio of 5% or lower (almost no effect))	3 (Herbicidal ratio of 40% or higher and lower than 70%)	5 (Herbicidal ratio of 90% or more (almost completely withered))
CON=C(C)CC1CC(OC(=O)N(C)C)=C(c2c(C)cc(-c3ccc(Cl)cc3)cc2C)C1=O (mixture of isomers) [6-063]	2 (Herbicidal ratio of 20% or higher and lower than 40%)	0 (Herbicidal ratio of 5% or lower (almost no effect))	5 (Herbicidal ratio of 90% or more (almost completely withered))	0 (Herbicidal ratio of 5% or lower (almost no effect))	5 (Herbicidal ratio of 90% or more (almost completely withered))	5 (Herbicidal ratio of 90% or more (almost completely withered))	5 (Herbicidal ratio of 90% or more (almost completely withered))	2 (Herbicidal ratio of 20% or higher and lower than 40%)	5 (Herbicidal ratio of 90% or more (almost completely withered))	1 (Herbicidal ratio of 5% or higher and lower than 20%)	5 (Herbicidal ratio of 90% or more (almost completely withered))	0 (Herbicidal ratio of 5% or lower (almost no effect))	0 (Herbicidal ratio of 5% or lower (almost no effect))	1 (Herbicidal ratio of 5% or higher and lower than 20%)
CCc1cc(-c2ccc(Cl)cc2)cc(C)c1C1=C(OC(=O)N2CCOCC2)CC(CC(C)=NOC)C1=O (mixture of isomers) [6-064]	0 (Herbicidal ratio of 5% or lower (almost no effect))	0 (Herbicidal ratio of 5% or lower (almost no effect))	5 (Herbicidal ratio of 90% or more (almost completely withered))	5 (Herbicidal ratio of 90% or more (almost completely withered))	5 (Herbicidal ratio of 90% or more (almost completely withered))	5 (Herbicidal ratio of 90% or more (almost completely withered))	5 (Herbicidal ratio of 90% or more (almost completely withered))	0 (Herbicidal ratio of 5% or lower (almost no effect))	5 (Herbicidal ratio of 90% or more (almost completely withered))	0 (Herbicidal ratio of 5% or lower (almost no effect))	5 (Herbicidal ratio of 90% or more (almost completely withered))	0 (Herbicidal ratio of 5% or lower (almost no effect))	0 (Herbicidal ratio of 5% or lower (almost no effect))	5 (Herbicidal ratio of 90% or more (almost completely withered))
